# Source: PubChem BioAssay (NCI)
# Several values for one entry are separate records, joined by “and”; a condition that tells them apart may be missing. Equal entries are not always repeated.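 These data come from cells grown in 96-well plates and exposed to compound for 48 hours at five concentrations. At the GI50, growth is halved. TGI denotes the concentration required for complete inhibition of growth.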
# Assays:
# Assay in all cases: NCI-60 cell line screen, 48 h
# A498 renal = system: A498 renal
# HS 578T breast = system: HS 578T breast
# 786-0 renal = system: 786-0 renal
# UACC-257 melanoma = system: UACC-257 melanoma
# MDA-MB-231 breast = system: MDA-MB-231 breast
# MOLT-4 leukemia = system: MOLT-4 leukemia
# U251 CNS = system: U251 CNS
# OVCAR-4 ovarian = system: OVCAR-4 ovarian
# K-562 leukemia = system: K-562 leukemia
# SK-OV-3 ovarian = system: SK-OV-3 ovarian
# SK-MEL-2 melanoma = system: SK-MEL-2 melanoma
# SK-MEL-5 melanoma = system: SK-MEL-5 melanoma
# LOX IMVI melanoma = system: LOX IMVI melanoma
# COLO 205 colon = system: COLO 205 colon
# MALME-3M melanoma = system: MALME-3M melanoma
# HL-60(TB) leukemia = system: HL-60(TB) leukemia
# RPMI-8226 leukemia = system: RPMI-8226 leukemia
# M14 melanoma = system: M14 melanoma
# UO-31 renal = system: UO-31 renal
# NCI-H23 lung = system: NCI-H23 lung
# NCI-H226 lung = system: NCI-H226 lung
# NCI-H460 lung = system: NCI-H460 lung
# SK-MEL-28 melanoma = system: SK-MEL-28 melanoma
# A549 NSCLC = system: A549 NSCLC
# NCI/ADR-RES ovarian = system: NCI/ADR-RES ovarian
# SNB-19 CNS = system: SNB-19 CNS
# SN12C renal = system: SN12C renal
# ACHN renal = system: ACHN renal
# HOP-92 NSCLC = system: HOP-92 NSCLC
# SF-268 CNS = system: SF-268 CNS
# NCI-H522 lung = system: NCI-H522 lung
# DU-145 prostate = system: DU-145 prostate
# SF-295 CNS = system: SF-295 CNS
# KM12 colon = system: KM12 colon
# CAKI-1 renal = system: CAKI-1 renal
# MDA-MB-435 = system: MDA-MB-435
# SR leukemia = system: SR leukemia
# UACC-62 melanoma = system: UACC-62 melanoma
# SW-620 colon = system: SW-620 colon
# HCT-15 colon = system: HCT-15 colon
# MCF7 breast = system: MCF7 breast
# SF-539 CNS = system: SF-539 CNS
# CCRF-CEM leukemia = system: CCRF-CEM leukemia
# OVCAR-8 ovarian = system: OVCAR-8 ovarian
# HCC-2998 colon = system: HCC-2998 colon
# HCT-116 colon = system: HCT-116 colon
# HT29 colon = system: HT29 colon
# PC-3 prostate = system: PC-3 prostate
smiles,measurement,setting,value
Fc1c[c-]c(-c2ccccn2)c(F)c1.Fc1c[c-]c(-c2ccccn2)c(F)c1.[Cl][Pt+].[Cl][Pt+].c1ccc([PH+](C[PH+](c2ccccc2)c2ccccc2)c2ccccc2)cc1,GI50,A498 renal,164 nM
same,TGI,A498 renal,461 nM
same,GI50,HS 578T breast,275 nM
same,TGI,HS 578T breast,1170 nM
same,GI50,786-0 renal,184 nM
same,TGI,786-0 renal,380 nM
same,GI50,UACC-257 melanoma,235 nM
same,TGI,UACC-257 melanoma,815 nM
same,GI50,MDA-MB-231 breast,139 nM
same,TGI,MDA-MB-231 breast,373 nM
same,GI50,MOLT-4 leukemia,328 nM
same,GI50,U251 CNS,63 nM
same,TGI,U251 CNS,218 nM
same,GI50,OVCAR-4 ovarian,154 nM
same,TGI,OVCAR-4 ovarian,977 nM
same,GI50,K-562 leukemia,95.5 nM
same,TGI,K-562 leukemia,> 100000 nM
same,GI50,SK-OV-3 ovarian,330 nM
same,TGI,SK-OV-3 ovarian,910 nM
same,GI50,SK-MEL-2 melanoma,193 nM
same,TGI,SK-MEL-2 melanoma,479 nM
same,GI50,SK-MEL-5 melanoma,164 nM
same,TGI,SK-MEL-5 melanoma,307 nM
same,GI50,LOX IMVI melanoma,380 nM
same,TGI,LOX IMVI melanoma,1380 nM
same,GI50,COLO 205 colon,132 nM
same,TGI,COLO 205 colon,362 nM
same,GI50,MALME-3M melanoma,264 nM
same,TGI,MALME-3M melanoma,758 nM
same,GI50,HL-60(TB) leukemia,271 nM
same,TGI,HL-60(TB) leukemia,813 nM
same,GI50,RPMI-8226 leukemia,80 nM
same,TGI,RPMI-8226 leukemia,466 nM
COC(=O)c1cc2c(cc1O)[C@@H](NC(C)=O)CCc1cc(OC)c(OC)c(OC)c1-2,GI50,A498 renal,42.2 nM
same,GI50,M14 melanoma,29.3 nM
same,TGI,M14 melanoma,> 100000 nM
same,TGI,HS 578T breast,48.1 nM
same,GI50,UO-31 renal,62.6 nM
same,TGI,UO-31 renal,> 100000 nM
same,GI50,NCI-H23 lung,21.7 nM
same,TGI,NCI-H23 lung,84.8 nM and 71.2 nM
same,GI50,NCI-H226 lung,30.9 nM
same,GI50,786-0 renal,41.6 nM
same,TGI,786-0 renal,> 100000 nM
same,GI50,NCI-H460 lung,29.6 nM
same,TGI,NCI-H460 lung,> 100000 nM
same,GI50,SK-MEL-28 melanoma,> 100000 nM
same,TGI,SK-MEL-28 melanoma,> 100000 nM
same,GI50,A549 NSCLC,31.3 nM
same,TGI,A549 NSCLC,> 100000 nM
same,GI50,UACC-257 melanoma,27.4 nM
same,TGI,UACC-257 melanoma,> 100000 nM
same,GI50,NCI/ADR-RES ovarian,59.6 nM
same,GI50,MDA-MB-231 breast,54.2 nM
same,TGI,MDA-MB-231 breast,> 100000 nM
same,GI50,MOLT-4 leukemia,47.2 nM
same,TGI,MOLT-4 leukemia,81800 nM
same,GI50,U251 CNS,40.2 nM
same,TGI,U251 CNS,1170 nM
same,GI50,OVCAR-4 ovarian,1060 nM
same,TGI,OVCAR-4 ovarian,> 100000 nM
same,GI50,SNB-19 CNS,35.5 nM
same,TGI,SNB-19 CNS,> 100000 nM
same,GI50,SN12C renal,40.8 nM
same,TGI,SN12C renal,> 100000 nM
same,GI50,ACHN renal,45.9 nM
same,TGI,ACHN renal,> 100000 nM
same,TGI,HOP-92 NSCLC,8750 nM
same,GI50,K-562 leukemia,24.6 nM
same,TGI,K-562 leukemia,> 100000 nM
same,GI50,SF-268 CNS,447 nM
same,TGI,SF-268 CNS,> 100000 nM
same,TGI,NCI-H522 lung,190 nM
same,GI50,SK-OV-3 ovarian,83.1 nM
same,TGI,SK-OV-3 ovarian,> 100000 nM
same,TGI,DU-145 prostate,> 100000 nM
same,GI50,SK-MEL-2 melanoma,< 10 nM
same,TGI,SK-MEL-2 melanoma,37.1 nM
same,GI50,SF-295 CNS,< 10 nM
same,TGI,SF-295 CNS,> 100000 nM
same,GI50,KM12 colon,< 10 nM
same,GI50,CAKI-1 renal,21.4 nM
same,TGI,CAKI-1 renal,> 100000 nM
same,GI50,MDA-MB-435,< 10 nM
same,TGI,MDA-MB-435,1230 nM
same,GI50,SR leukemia,< 10 nM
same,TGI,SR leukemia,> 100000 nM
same,TGI,LOX IMVI melanoma,> 100000 nM
same,GI50,UACC-62 melanoma,15.9 nM
same,TGI,UACC-62 melanoma,> 100000 nM
same,GI50,SW-620 colon,23.5 nM
same,TGI,SW-620 colon,> 100000 nM
same,GI50,COLO 205 colon,23.6 nM
same,TGI,COLO 205 colon,1560 nM and 1180 nM
same,GI50,HCT-15 colon,22.6 nM
same,TGI,MCF7 breast,> 100000 nM
same,TGI,SF-539 CNS,76600 nM
same,GI50,CCRF-CEM leukemia,39.8 nM
same,TGI,CCRF-CEM leukemia,> 100000 nM
same,GI50,OVCAR-8 ovarian,40.4 nM
same,GI50,HCC-2998 colon,35.5 nM
same,GI50,MALME-3M melanoma,29.9 nM
same,GI50,HCT-116 colon,16.4 nM
same,GI50,HT29 colon,20.6 nM
same,TGI,HT29 colon,201 nM and 55.4 nM
same,GI50,PC-3 prostate,15 nM
same,TGI,PC-3 prostate,> 100000 nM
same,GI50,RPMI-8226 leukemia,52.4 nM
same,TGI,RPMI-8226 leukemia,> 100000 nM
